Read-outs that look alike come from different tables or passages of the source.
Test system: panel of 290 distinct kinases (321 in the larger panel), excluding mutant variants
[1] = no asterisk: panel of 290 distinct kinases
[2] = asterisk: panel of 321 distinct kinases
[3] = kinase selectivity score, value marked * (larger kinase panel), class symbols

SMILES | S35 [1] | further results
COc1cc2ncnc(Oc3cc(NC(=O)Nc4cc(C(C)(C)F)no4)ccc3F)c2cc1OC [Ex 293, 1-(3-(6,7-dimethoxyquinazolin-4-yloxy)-4-fluorophenyl)-3-(3-(2-fluoropropan-2-yl)isoxazol-5-yl)urea] | C (0.20 < C ≦ 0.40) | –
CCOC(=O)Cn1nc(C(C)(C)C)cc1NC(=O)Nc1cccc(Sc2ncnc3cc(OCCOC)c(OC)cc23)c1 [Ex 237, ethyl 2-[3-tert-butyl-5-(3-{3-[6-methoxy-7-(2-methoxyethoxy)quinazolin-4-ylthio]phenyl}ureido)-1H-pyrazol-1-yl]acetate] | – | S35 [2]: C* (0.20 < C ≦ 0.40)
CCOc1cc2c(Oc3cccc(NC(=O)Nc4cc(C(C)(C)F)no4)c3)ncnc2cc1OC [Ex 392, 1-(3-(6-ethoxy-7-methoxyquinazolin-4-yloxy)phenyl)-3-(3-(2-fluoropropan-2-yl)isoxazol-5-yl)urea] | C (0.20 < C ≦ 0.40) | –
COc1cc2ncnc(Oc3cc(NC(=O)Nc4cc(C(C)(C)F)no4)c(F)cc3F)c2cc1OC [Ex 269, 1-(5-(6,7-dimethoxyquinazolin-4-yloxy)-2,4-difluorophenyl)-3-(3-(2-fluoropropan-2-yl)isoxazol-5-yl)urea] | D (D > 0.40) | –
COCCOc1cc2ncnc(Oc3cccc(NC(=O)Nc4cc(C(C)(CF)CF)on4)c3)c2cc1OC [Ex 213, 1-[5-(1,3-difluoro-2-methylpropan-2-yl)isoxazol-3-yl]-3-{3-[6-methoxy-7-(2-methoxyethoxy)quinazolin-4-yloxy]phenyl}urea] | – | S35 [2]: D* (D > 0.40)
COc1cc2ncnc(Oc3cccc(NC(=O)Nc4cc(C5(C(F)(F)F)CC5)nn4-c4ccccc4)c3)c2cc1OC [Ex 137, 1-(3-(6,7-dimethoxyquinazolin-4-yloxy)phenyl)-3-(1-phenyl-3-(1-(trifluoromethyl)cyclopropyl)-1H-pyrazol-5-yl)urea] | – | S35 [3]: D* (D > 0.40)
COCCOc1cc2ncnc(Oc3cccc(NC(=O)Nc4cc(C(C)(C)C)nn4-c4ccc(C)cc4)c3)c2cc1OC [Ex 276, 1-(3-tert-butyl-1-p-tolyl-1H-pyrazol-5-yl)-3-(3-(6-methoxy-7-(2-methoxyethoxy)quinazolin-4-yloxy)phenyl)urea] | D (D > 0.40) | –
CCOc1cc2ncnc(Sc3cccc(NC(=O)Nc4cc(C(C)(CF)CF)on4)c3)c2cc1OC [Example 388, 1-(5-(1,3-difluoro-2-methylpropan-2-yl)isoxazol-3-yl)-3-(3-(7-ethoxy-6-methoxyquinazolin-4-ylthio)phenyl)urea] | C (0.20 < C ≦ 0.40) | –
COc1cc2ncnc(Sc3cccc(NC(=O)Nc4cc(C(C)(C)C)nn4-c4ccc(C(C)(C)C)cc4)c3)c2cc1OC [Ex 370, 1-(3-tert-butyl-1-(4-tert-butylphenyl)-1H-pyrazol-5-yl)-3-(3-(6,7-dimethoxyquinazolin-4-ylthio)phenyl)urea] | D (D > 0.40) | –
COc1cc2ncnc(Sc3cccc(NC(=O)Nc4ccc(C(F)(F)F)cc4)c3)c2cc1OC [Ex 184, 1-(3-(6,7-dimethoxyquinazolin-4-ylthio)phenyl)-3-(4-(trifluoromethyl)phenyl)urea] | – | S35 [3]: C* (0.20 < C ≦ 0.40)
COc1cc2ncnc(Sc3cccc(NC(=O)Nc4cc(C(C)(C)C)nn4-c4cccc(F)c4)c3)c2cc1OC [Ex 360, 1-(3-tert-butyl-1-(3-fluorophenyl)-1H-pyrazol-5-yl)-3-(3-(6,7-dimethoxyquinazolin-4-ylthio)phenyl)urea] | D (D > 0.40) | –
COCCOc1cc2ncnc(Sc3cccc(NC(=O)Nc4cc(C(C)(CF)CF)on4)c3)c2cc1OC [Ex 230, 1-[5-(1,3-difluoro-2-methylpropan-2-yl)isoxazol-3-yl]-3-{3-[6-methoxy-7-(2-methoxyethoxy)quinazolin-4-ylthio]phenyl}urea] | – | S35 [2]: C* (0.20 < C ≦ 0.40)
COc1cc2ncnc(Sc3cccc(NC(=O)Nc4cc(C(C)(C)C(F)(F)F)no4)c3)c2cc1OC [Ex 268, 1-(3-(6,7-dimethoxyquinazolin-4-ylthio)phenyl)-3-(3-(1,1,1-trifluoro-2-methylpropan-2-yl)isoxazol-5-yl)urea] | C (0.20 < C ≦ 0.40) | –
COc1ccc(-n2nc(C(C)(C)C)cc2NC(=O)Nc2cccc(Sc3ncnc4cc(OC)c(OC)cc34)c2)cc1 [Ex 362, 1-(3-tert-butyl-1-(4-methoxyphenyl)-1H-pyrazol-5-yl)-3-(3-(6,7-dimethoxyquinazolin-4-ylthio)phenyl)urea] | D (D > 0.40) | –
COc1cc2ncnc(Oc3cc(NC(=O)Nc4cc(C(C)(C)C)nn4-c4ccccc4)c(F)cc3F)c2cc1OC [Ex 273, 1-(3-tert-butyl-1-phenyl-1H-pyrazol-5-yl)-3-(5-(6,7-dimethoxyquinazolin-4-yloxy)-2,4-difluorophenyl)urea] | D (D > 0.40) | –
COc1cc2ncnc(Oc3cccc(NC(=O)Nc4cc(C(C)(C)C)nn4-c4cccc(C)c4)c3)c2cc1OC [Ex 285, 1-(3-tert-butyl-1-m-tolyl-1H-pyrazol-5-yl)-3-(3-(6,7-dimethoxyquinazolin-4-yloxy)phenyl)urea] | D (D > 0.40) | –

SMILES | S35 [1] | further results
COc1cc2ncnc(Oc3ccc(Cl)c(NC(=O)Nc4cc(C(C)(C)C)nn4-c4ccc(C)cc4)c3)c2cc1OC [Ex 298, 1-(3-tert-butyl-1-p-tolyl-1H-pyrazol-5-yl)-3-(2-chloro-5-(6,7-dimethoxyquinazolin-4-yloxy)phenyl)urea] | D (D > 0.40) | –
COCCOc1cc2ncnc(Sc3cccc(NC(=O)Nc4ccc(C(F)(F)F)c(OC)c4)c3)c2cc1OC [Ex 233, 1-(3-methoxy-4-(trifluoromethyl)phenyl)-3-(3-(6-methoxy-7-(2-methoxyethoxy)quinazolin-4-ylthio)phenyl)urea] | – | S35 [2]: C* (0.20 < C ≦ 0.40)
COc1cc2ncnc(Oc3cccc(NC(=O)Nc4cc(C(C)(CF)CF)on4)c3F)c2cc1OC [Ex 297, 1-(5-(1,3-difluoro-2-methylpropan-2-yl)isoxazol-3-yl)-3-(3-(6,7-dimethoxyquinazolin-4-yloxy)-2-fluorophenyl)urea] | C (0.20 < C ≦ 0.40) | –
COc1cc2ncnc(Sc3cccc(NC(=O)Nc4ccc(OC)c(C(F)(F)F)c4)c3)c2cc1OCCCN1CCS(=O)(=O)CC1 [Ex 246, 1-(4-methoxy-3-(trifluoromethyl)phenyl)-3-(3-(7-methoxy-6-(3-(4,4-dioxothiomorpholino)propoxy)quinazolin-4-ylthio)phenyl)urea] | – | S35 [2]: C* (0.20 < C ≦ 0.40)
CCOc1cc2c(Oc3cccc(NC(=O)Nc4cc(C(F)(F)F)nn4-c4ccccc4)c3)ncnc2cc1OC [Ex 391, 1-(3-(6-ethoxy-7-methoxyquinazolin-4-yloxy)phenyl)-3-(1-phenyl-3-(trifluoromethyl)-1H-pyrazol-5-yl)urea] | C (0.20 < C ≦ 0.40) | –
COc1cc2ncnc(Oc3cccc(NC(=O)Nc4cc(C(C)(C)C)on4)c3C)c2cc1OC [Ex 290, 1-(5-tert-butylisoxazol-3-yl)-3-(3-(6,7-dimethoxyquinazolin-4-yloxy)-2-methylphenyl)urea] | C (0.20 < C ≦ 0.40) | –
CCOc1cc2ncnc(Oc3cccc(NC(=O)Nc4cc(C(C)(CF)CF)on4)c3)c2cc1OC [Ex 386, 1-(5-(1,3-difluoro-2-methylpropan-2-yl)isoxazol-3-yl)-3-(3-(7-ethoxy-6-methoxyquinazolin-4-yloxy)phenyl)urea] | C (0.20 < C ≦ 0.40) | –
COc1cc2c(Sc3cccc(NC(=O)Nc4ccc(OC)c(C(F)(F)F)c4)c3)ncnc2cc1OCCN1CCOCC1 [Ex 249, 1-(4-methoxy-3-(trifluoromethyl)phenyl)-3-(3-(6-methoxy-7-(2-morpholinoethoxy)quinazolin-4-ylthio)phenyl)urea] | – | S35 [2]: C* (0.20 < C ≦ 0.40)
COc1cc2ncnc(Oc3cccc(NC(=O)Nc4cc(C(C)(C)C)nn4-c4ccccc4F)c3)c2cc1OC [Ex 372, 1-(3-tert-butyl-1-(2-fluorophenyl)-1H-pyrazol-5-yl)-3-(3-(6,7-dimethoxyquinazolin-4-yloxy)phenyl)urea] | D (D > 0.40) | –
COCCOc1cc2ncnc(Oc3cccc(NC(=O)Nc4cc(C(C)(C)COC)on4)c3)c2cc1OC [Ex 217, 1-(5-(1-methoxy-2-methylpropan-2-yl)isoxazol-3-yl)-3-(3-(6-methoxy-7-(2-methoxyethoxy)quinazolin-4-yloxy)phenyl)urea] | – | S35 [2]: C* (0.20 < C ≦ 0.40)
COCCOc1cc2ncnc(Oc3cccc(NC(=O)Nc4cc(C(C)(C)C)nn4C)c3)c2cc1OC [Ex 209, 1-(3-tert-butyl-1-methyl-1H-pyrazol-5-yl)-3-(3-(6-methoxy-7-(2-methoxyethoxy)quinazolin-4-yloxy)phenyl)urea] | – | S35 [2]: C* (0.20 < C ≦ 0.40)
COc1cc2ncnc(Sc3cccc(NC(=O)Nc4cc(C5(C(F)(F)F)CC5)nn4-c4ccccc4)c3)c2cc1OC [Ex 383, 1-(3-(6,7-dimethoxyquinazolin-4-ylthio)phenyl)-3-(1-phenyl-3-(1-(trifluoromethyl)cyclopropyl)-1H-pyrazol-5-yl)urea] | C (0.20 < C ≦ 0.40) | –
COCCOc1cc2ncnc(Sc3cccc(NC(=O)Nc4cc(C(F)(F)F)n(-c5ccccc5)n4)c3)c2cc1OC [Ex 244, 1-{3-[6-methoxy-7-(2-methoxyethoxy)quinazolin-4-ylthio]phenyl}-3-[1-phenyl-5-(trifluoromethyl)-1H-pyrazol-3-yl]urea] | – | S35 [2]: C* (0.20 < C ≦ 0.40)
COCCOc1cc2ncnc(Sc3cccc(NC(=O)Nc4cc(C(C)(C)C)no4)c3)c2cc1OCCOC [Ex 247, 1-(3-(6,7-bis(2-methoxyethoxy)quinazolin-4-ylthio)phenyl)-3-(3-tert-butylisoxazol-5-yl)urea] | C (0.20 < C ≦ 0.40) | –
CCOc1cc2ncnc(Oc3cccc(NC(=O)Nc4cc(C(F)(F)F)nn4-c4ccccc4)c3)c2cc1OC [Example 384, 1-(3-(7-ethoxy-6-methoxyquinazolin-4-yloxy)phenyl)-3-(1-phenyl-3-(trifluoromethyl)-1H-pyrazol-5-yl)urea] | C (0.20 < C ≦ 0.40) | –
COc1cc2ncnc(Oc3cccc(NC(=O)Nc4cc(C(C)(C)C)nn4-c4cnccc4C)c3)c2cc1OC [Ex 303, 1-(3-tert-butyl-1-(4-methylpyridin-3-yl)-1H-pyrazol-5-yl)-3-(3-(6,7-dimethoxyquinazolin-4-yloxy)phenyl)urea] | D (D > 0.40) | –

— patent US9730937B2, “RAF kinase modulator compounds and methods of use thereof” (AMBIT BIOSCIENCES CORPORATION, priority 2008, dated 2017)
